Here are results for 15 compounds from ChEMBL document CHEMBL4602611, “Discovery of 1,2,4-triazine-based derivatives as novel neddylation inhibitors and anticancer activity studies against gastric cancer MGC-803 cells” (Bioorg Med Chem Lett, 2020).

The target of assay [1] is T1, NEDD8-activating enzyme E1 regulatory subunit (Homo sapiens) (UniProt Q13564).
T1 sequence (whole entry): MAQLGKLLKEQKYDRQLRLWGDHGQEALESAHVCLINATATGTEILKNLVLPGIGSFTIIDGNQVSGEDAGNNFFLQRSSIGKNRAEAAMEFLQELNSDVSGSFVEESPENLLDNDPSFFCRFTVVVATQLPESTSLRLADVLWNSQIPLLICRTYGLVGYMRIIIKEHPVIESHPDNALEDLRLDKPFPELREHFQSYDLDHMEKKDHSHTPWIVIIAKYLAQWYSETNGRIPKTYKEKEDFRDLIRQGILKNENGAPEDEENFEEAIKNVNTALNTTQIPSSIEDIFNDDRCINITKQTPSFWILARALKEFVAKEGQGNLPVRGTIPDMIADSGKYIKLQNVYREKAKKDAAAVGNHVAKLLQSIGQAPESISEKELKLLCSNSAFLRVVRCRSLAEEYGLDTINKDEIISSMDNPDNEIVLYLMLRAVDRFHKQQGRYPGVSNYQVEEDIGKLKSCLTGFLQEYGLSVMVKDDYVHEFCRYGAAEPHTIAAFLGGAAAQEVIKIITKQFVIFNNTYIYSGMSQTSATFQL
The assay can be described thus: Inhibition of NAE (unknown origin)-mediated neddylation assessed as decrease in Nedd8-Ubcl2 adduct formation at 10 uM by Western blot analysis.

For the next assay, the system named is ECa-109 cell line. The assay can be described thus: Antiproliferative activity against human EC109 cells assessed as inhibition of cell growth incubated for 48 hrs by MTT assay. The class given is functional, cell-based. The conditions noted are these: ECa-109, 48 h. In general terms: Tetrazolium dyes change colour on reduction, which living cells bring about.

For assay [2], the system named is MGC-803. The assay can be described thus: Antiproliferative activity against human MGC803 cells assessed as inhibition of cell growth incubated for 48 hrs by MTT assay. The class given is functional, cell-based. The conditions noted are these: for IC50: MGC-803, 48 h.
The next assay relates to PC-3. Description: Antiproliferative activity against human PC3 cells assessed as inhibition of cell growth incubated for 48 hrs by MTT assay. The conditions noted are these: PC-3, 48 h. The class given is functional, cell-based.
The test system of assay [3] is MGC-803. Description: Antiproliferative activity against human MGC803 cells assessed as fold increase in cell growth at 10 umol/l incubated for 48 hrs by MTT assay relative to control. The class given is functional.
In assay [4] the test system is MGC-803. Description: Induction of apoptosis in human MGC803 cells at 5 to 20 umol/l incubated for 48 hrs by AnnexinV-FITC/PI staining based flow cytometric analysis relative to control. Type of assay: functional. (Flow cytometry measures light scatter and fluorescence of single cells or particles in a stream.)
The target in assay [5] is T1, NEDD8-activating enzyme E1 regulatory subunit (Homo sapiens). The assay can be described thus: (§1) Inhibition of NAE-mediated neddylation in human MGC803 cells assessed as reduction in Nedd8-Ubcl2 adduct formation incubated for 24 hrs by Western blot analysis. The class given is cell-based. The conditions noted are these: MGC-803. A general note: A western blot detects proteins with antibodies after separation by electrophoresis.

Assay [6] addresses T2, NEDD8-activating enzyme E1 regulatory subunit (Homo sapiens, UniProt Q13564).
T2 sequence (Q13564 whole entry): T1 sequence (whole entry)
The assay is described as §1. The class given is cell-based, MGC-803.

Assay [7] concerns MGC-803. Description: Increase in ATF4 protein expression in human MGC803 cells at 5 to 20 umol/l incubated for 24 hrs by Western blot analysis. Type of assay: functional, cell-based.
For assay [8], the system named is MGC-803. The assay can be described thus: Induction of apoptosis in human MGC803 cells assessed as increase in cleaved caspase9 expression at 5 to 20 umol/l incubated for 48 hrs by Western blot analysis. Type of assay: functional, cell-based.
In assay [9] the test system is MGC-803. Description: Increase in CHOP protein expression in human MGC803 cells at 5 to 20 umol/l incubated for 24 hrs by Western blot analysis. The class given is functional, cell-based.
The test system of assay [10] is MGC-803. Description: Inhibition of colony formation in human MGC803 cells at 0.5 uM incubated for 7 days by crystal violet staining based assay. Type of assay: functional, cell-based.
In assay [11] the target is T1, NEDD8-activating enzyme E1 regulatory subunit (Homo sapiens). Description: Inhibition of NAE-mediated neddylation in human MGC803 cells assessed as reduction in Nedd8-Cullin3 adduct formation at 10 uM incubated for 24 hrs by Western blot analysis. The following applies: MGC-803. Type of assay: cell-based.
Assay [12] has the same target. The assay can be described thus: Inhibition of NAE-mediated neddylation in human MGC803 cells assessed as reduction in Nedd8-Ubcl2 adduct formation at 5 uM incubated for 24 hrs by Western blot analysis. The class given is cell-based. The conditions noted are these: MGC-803.
Assay [13] concerns MGC-803. Description: Downregulation of XIAP protein expression in human MGC803 cells at 5 to 20 umol/l incubated for 48 hrs by Western blot analysis. The class given is functional, cell-based.
Assay [14] has as its target T1, NEDD8-activating enzyme E1 regulatory subunit (Homo sapiens). Description: Inhibition of NAE-mediated neddylation in human MGC803 cells assessed as reduction in Nedd8-Ubcl2 adduct formation at 10 uM incubated for 24 hrs by Western blot analysis relative to control. Type of assay: cell-based. The following applies: MGC-803.
Assay [15] concerns MGC-803. The assay can be described thus: Antiproliferative activity against human MGC803 cells assessed as inhibition of cell growth at 10 umol/l measured within 48 hrs of incubation by MTT assay. The class given is functional, cell-based.
The subject of assay [16] is MGC-803. Description: Induction of apoptosis in human MGC803 cells assessed as increase in cleaved PARP expression at 5 to 20 umol/l incubated for 48 hrs by Western blot analysis. Type of assay: functional, cell-based.
Assay [17] concerns the target T1, NEDD8-activating enzyme E1 regulatory subunit (Homo sapiens). The assay can be described thus: Inhibition of NAE (unknown origin)-mediated neddylation assessed as decrease in Nedd8-Ubcl2 adduct formation at 5 uM by Western blot analysis.
For assay [18], the system named is MGC-803. The assay can be described thus: Increase in Noxa protein expression in human MGC803 cells at 5 to 20 umol/l incubated for 24 hrs by Western blot analysis. Type of assay: functional, cell-based.
In assay [19] the test system is MGC-803. Description: Downregulation of CDK1 protein expression in human MGC803 cells at 5 to 20 umol/l incubated for 24 hrs by Western blot analysis. Type of assay: functional, cell-based.
In assay [20] the test system is MGC-803. The assay can be described thus: Increase in p21 protein expression in human MGC803 cells at 5 to 20 umol/l incubated for 24 hrs by Western blot analysis. The class given is functional, cell-based.
Assay [21] deals with MGC-803. Description: Induction of apoptosis in human MGC803 cells assessed as increase in cleaved caspase3 expression at 5 to 20 umol/l incubated for 48 hrs by Western blot analysis. The class given is functional, cell-based.
In assay [22] the target is T1, NEDD8-activating enzyme E1 regulatory subunit (Homo sapiens). Description: Inhibition of NAE-mediated neddylation in human MGC803 cells assessed as reduction in Nedd8-Cullin1 adduct formation by Western blot analysis. The class given is cell-based.
Assay [23] concerns MGC-803. The assay can be described thus: Upregulation in Bax protein expression in human MGC803 cells at 5 to 20 umol/l incubated for 48 hrs by Western blot analysis. Type of assay: functional, cell-based.
The subject of assay [24] is MGC-803. Description: Downregulation of Cyclin B1 protein expression in human MGC803 cells at 5 to 20 umol/l incubated for 24 hrs by Western blot analysis. The class given is functional, cell-based.
For assay [25], the target named is T1, NEDD8-activating enzyme E1 regulatory subunit (Homo sapiens). Description: Inhibition of NAE-mediated neddylation in human MGC803 cells assessed as reduction in NAE1-Nedd8 adduct formation at 10 uM incubated for 24 hrs by Western blot analysis. The conditions noted are these: MGC-803. The class given is cell-based.
Assay [26] concerns MGC-803. The assay can be described thus: Increase in DR5 protein expression in human MGC803 cells at 5 to 20 umol/l incubated for 24 hrs by Western blot analysis. The class given is functional, cell-based.
Assay [27] concerns MGC-803. Description: Induction of cell cycle arrest in human MGC803 cells assessed as accumulation in G2/M phase at 5 to 20 umol/l incubated for 24 hrs by propidium iodide staining based flow cytometric analysis. The class given is functional.
The subject of assay [28] is MGC-803. The assay can be described thus: Induction of cell cycle arrest in human MGC803 cells assessed as fold change in accumulation in G2/M phase at 5 to 20 umol/l incubated for 24 hrs by propidium iodide staining based flow cytometric analysis relative to control. The class given is functional.

Molecules are shown by their SMILES. Active and inactive are the calls of the source. The calls are words filed in the database; no cut-off is given here.

The term inhibition denotes the drop in the measured response relative to a control, in per cent. What is called IC50 is the midpoint of a concentration-inhibition curve. What is called EC50 is the midpoint of the concentration-response curve.

Regarding `NS(=O)(=O)OC[C@@H]1C[C@@H](n2ccc3c(N[C@H]4CCc5ccccc54)ncnc32)C[C@@H]1O`, the inhibition entry in assay [1] was “Active”.

As to `COc1cc(Nc2nc(Nc3ccc(Br)cc3)nnc2Cl)cc(OC)c1OC`, the half-inhibitory concentration (IC50) is 41.6 µM with ECa-109 cell line, 11.3 µM in the assay with MGC-803 [2] and 8.99 µM in the assay on PC-3.

With `COc1cc(Nc2nc(Nc3ccc(C(N)=O)cc3)nnc2Cl)cc(OC)c1OC`, the results for the IC50 with ECa-109 cell line, in the assay with MGC-803 [2] and in the assay on PC-3 were 42.4 µM, 15.2 µM and 32.1 µM, respectively.

With `COc1cc(Nc2nc(Nc3ccc4[nH]ccc4c3)nnc2Cl)cc(OC)c1OC`, the “fold change (FC)” value with MGC-803 [3] is 1.3; in the assay on MGC-803 [28], 2. In the assay on MGC-803 [4], this compound showed an Activity of 60%. Further, the inhibition entry was “Dose-dependent effect” in [5]; 100% in [14]; “Dose-dependent effect” with MGC-803 [2]; “Tde” in assay [22] (MGC-803, TDE = time-dependent effect). The EC50 in [6] amounted to 3.56 µM. Besides, the result in the assay with MGC-803 [7], in the assay on MGC-803 [8], in the assay with MGC-803 [9], with MGC-803 [15], in the assay on MGC-803 [16] and in the assay with MGC-803 [18] was Active. The outcome with MGC-803 [20], with MGC-803 [21], in the assay on MGC-803 [23], with MGC-803 [26] and in the assay with MGC-803 [27] was Active. Moreover, the inhibition result (in the assay on MGC-803 [10]; in assay [11]; in assay [12]; with MGC-803 [13]; in assay [17]; in the assay with MGC-803 [19]) was “Active” in each case. For the same compound, the inhibition entry (in the assay with MGC-803 [24]; in [25]) was “Active” throughout. The IC50 in the assay with ECa-109 cell line was determined as 9.64 µM; in the assay on MGC-803 [2], 8.22 µM; in the assay with PC-3 it was 9.28 µM.

On to `COc1cc(Nc2nc(Nc3ccc(C(C)=O)cc3)nnc2Cl)cc(OC)c1OC`, for which the values for the concentration for half-maximal inhibition (IC50) in the assay with ECa-109 cell line, in the assay with MGC-803 [2] and in the assay on PC-3 were 36.3 µM, 13 µM and 38.6 µM, respectively.

`COc1cc(Nc2nc(Cl)nnc2Cl)cc(OC)c1OC`: the inhibition result in assay [22] (MGC-803) was “Dose-dependent effect”.

Take `O=c1[nH]cc(F)c(=O)[nH]1` [FLUOROURACIL]: the half-maximal inhibitory concentration (IC50) in the assay on ECa-109 cell line was 21.2 µM.

Take `COc1cc(Nc2nc(Nc3ccccc3)nnc2Cl)cc(OC)c1OC`: the half-maximal inhibitory concentration (IC50) in the assay on ECa-109 cell line was 12.6 µM; in the assay with MGC-803 [2], 8.75 µM; with PC-3, 9.75 µM.

As for `CCOC(=O)c1ccc(Nc2nnc(Cl)c(Nc3cc(OC)c(OC)c(OC)c3)n2)cc1`, the values for the concentration for half-maximal inhibition (IC50) in the assay with ECa-109 cell line, in the assay on MGC-803 [2] and in the assay on PC-3 were 46.6 µM, 53.6 µM and 58.5 µM, respectively.

As to `COc1cc(Nc2nc(Nc3ccc(Cl)cc3)nnc2Cl)cc(OC)c1OC`, the 50% inhibitory concentration (IC50) in the assay with ECa-109 cell line was determined as 32.6 µM; with MGC-803 [2], 12.6 µM; with PC-3, 9.61 µM.

Turning to `COc1cccc(Nc2nnc(Cl)c(Nc3cc(OC)c(OC)c(OC)c3)n2)c1`, the IC50 turned out to be 15.9 µM with ECa-109 cell line, 16.5 µM in the assay on MGC-803 [2] and 11.3 µM in the assay with PC-3.

For the compound `COc1cc(Nc2nnc(Cl)c(Nc3cc(OC)c(OC)c(OC)c3)n2)cc(OC)c1OC`, the IC50 is > 50 µM in the assay with ECa-109 cell line, 24.3 µM in the assay on MGC-803 [2] and 34.3 µM in the assay with PC-3.

On to `COc1cc(Nc2nc(Nc3ccc(C)cc3)nnc2Cl)cc(OC)c1OC`, for which the IC50 stood at 27.3 µM in the assay with ECa-109 cell line, 19.8 µM in the assay with MGC-803 [2] and 14.3 µM with PC-3.

On to `COc1ccc(Nc2nnc(Cl)c(Nc3cc(OC)c(OC)c(OC)c3)n2)cc1`, for which the 50% inhibitory concentration (IC50) in the assay on ECa-109 cell line was 22.3 µM; in the assay with MGC-803 [2] it was 18.9 µM; with PC-3, 13.5 µM.

For `COc1cc(Nc2nc(Nc3ccc4c(ccn4C)c3)nnc2Cl)cc(OC)c1OC`, the IC50 is 42.1 µM in the assay with ECa-109 cell line, 28.1 µM in the assay on MGC-803 [2] and 48.5 µM in the assay with PC-3.
